Among the data in publication PMC7525151 (Frontiers in Microbiology, 2020) are relative activity and Km values, retold here.

Assay [1] deals with T1, TeFum (Thermosynechococcus vestitus, UniProt Q8DIP7). As to the kind of experiment: relative activity with effector, A240 absorbance. On the set-up: gene fumC. The conditions noted are these: activator in the fumarate direction; 0.14 mM fumarate, pH 7.0, 50 °C; sodium salt.
The target of a further assay is T2, CmFUM (Cyanidioschyzon merolae, UniProt M1VAI8).
T2 construct: gene CYME_CMD058C; N-terminal GST tag (pGEX6P-1, BamHI-XhoI) kept; codon-optimized synthetic gene; E. coli BL21(DE3); glutathione-Sepharose purified
Kind of assay: A240 absorbance, Michaelis-Menten fit. The conditions noted are these: fumarate hydration; 100 mM Tris-HCl pH 7.5; 52 °C. It is filed as biochemical.

Assay [2] deals with T1, TeFum. Kind of assay: A240 absorbance, Michaelis-Menten fit. In kind it is biochemical. Set-up: gene fumC; N-terminal GST tag (pGEX6P-1, BamHI-XhoI) kept; codon-optimized synthetic gene; E. coli BL21(DE3); glutathione-Sepharose purified. As to conditions: fumarate hydration; 100 mM Tris-HCl pH 7.0; 50 °C.

T1 sequence (Q8DIP7 whole entry): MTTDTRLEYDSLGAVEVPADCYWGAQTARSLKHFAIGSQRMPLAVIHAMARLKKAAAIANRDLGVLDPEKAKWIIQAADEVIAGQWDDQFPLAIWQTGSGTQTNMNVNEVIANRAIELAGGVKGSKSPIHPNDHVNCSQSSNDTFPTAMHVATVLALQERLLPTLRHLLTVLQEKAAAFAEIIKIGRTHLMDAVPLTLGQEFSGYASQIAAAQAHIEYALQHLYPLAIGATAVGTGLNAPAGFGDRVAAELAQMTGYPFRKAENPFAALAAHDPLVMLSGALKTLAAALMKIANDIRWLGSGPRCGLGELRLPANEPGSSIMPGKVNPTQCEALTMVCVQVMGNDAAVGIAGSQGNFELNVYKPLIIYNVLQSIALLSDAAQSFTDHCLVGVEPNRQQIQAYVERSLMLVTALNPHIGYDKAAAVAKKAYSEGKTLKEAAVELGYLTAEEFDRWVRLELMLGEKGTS
T2 sequence (M1VAI8 1-553): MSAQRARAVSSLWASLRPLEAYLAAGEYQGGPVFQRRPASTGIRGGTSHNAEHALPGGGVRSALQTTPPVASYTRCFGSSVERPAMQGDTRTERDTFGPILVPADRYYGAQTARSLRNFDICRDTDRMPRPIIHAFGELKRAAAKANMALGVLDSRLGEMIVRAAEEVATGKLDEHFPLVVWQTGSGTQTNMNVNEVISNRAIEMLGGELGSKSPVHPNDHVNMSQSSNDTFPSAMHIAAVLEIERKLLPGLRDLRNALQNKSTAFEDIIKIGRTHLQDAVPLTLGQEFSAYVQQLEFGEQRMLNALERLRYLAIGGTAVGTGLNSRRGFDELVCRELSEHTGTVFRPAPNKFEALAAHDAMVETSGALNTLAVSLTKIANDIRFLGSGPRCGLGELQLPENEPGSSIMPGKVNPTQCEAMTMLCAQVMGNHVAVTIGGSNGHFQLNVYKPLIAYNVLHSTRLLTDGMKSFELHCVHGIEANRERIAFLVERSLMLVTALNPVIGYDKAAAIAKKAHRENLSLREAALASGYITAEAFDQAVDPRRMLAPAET

`CC(=O)C(=O)O` [pyruvate]: the relative activity entry on TeFum [1] was “pyruvate increased the TeFum activity for fumarate (Figure 4B)”. As to `O=C(O)/C=C/C(=O)O` [fumarate], the Km (in general, the substrate concentration at which the rate is half of its maximum) worked out at 270 ± 50 µM at CmFUM and 140 ± 20 µM on TeFum [2].
